Values after ≈ are worked out from the molar mass of the structure shown. Where two headings read alike, the source gives them in different places.
What was measured:
Serratia marcescens = test: Antibiotic activity (MIC), Gradient Plate in vitro method, Serratia marcescens; format: cell-based; conditions: read-out: Minimum Inhibitory Concentration
From the text: (§1) The antibiotic activity of the cephalosporin compounds of the present invention is illustrated by the data presented in Table I for representative compounds. The values in the table are the minimum inhibitory concentrations (MIC) for the test compounds against the indicated microorganisms. The MIC values were obtained in the Gradient Plate in vitro method for determining antibiotic activity.

[1] = tested on: V41 (penicillin resistant Staphylococcus); test: Antibiotic activity (MIC), Gradient Plate in vitro method, V41; format: cell-based; conditions: Gradient Plate in vitro; V41, penicillin resistant Staphylococcus; read-out: Minimum Inhibitory Concentration
From the text: as §1
(§2) ^1 Test organisms V41, V32, and V84 are penicillin resistant

Shigella sp. = test: Antibiotic activity (MIC), Gradient Plate in vitro method, Shigella sp.; format: cell-based; conditions: read-out: Minimum Inhibitory Concentration
From the text: as §1

Salmonella heidelberg = test: Antibiotic activity (MIC), Gradient Plate in vitro method, Salmonella heidelberg; format: cell-based; conditions: Salmonella enterica, read-out: Minimum Inhibitory Concentration
From the text: (§3) The values in the table are the minimum inhibitory concentrations (MIC) for the test compounds against the indicated microorganisms. The MIC values were obtained in the Gradient Plate in vitro method for determining antibiotic activity.

[2] = tested on: V84 (penicillin resistant Staphylococcus); test: Antibiotic activity (MIC), Gradient Plate in vitro method, V84; format: cell-based; conditions: read-out: Minimum Inhibitory Concentration
From the text: as §1, §2

[3] = tested on: X466 (methicillin resistant Staphylococcus); test: Antibiotic activity (MIC), Gradient Plate in vitro method, X466; format: cell-based; conditions: read-out: Minimum Inhibitory Concentration
From the text: as §1, with “activity. […]” for “activity.”

Escherichia coli = test: Antibiotic activity (MIC), Gradient Plate in vitro method, Escherichia coli; format: cell-based; conditions: read-out: Minimum Inhibitory Concentration
From the text: as §3

[4] = tested on: V32 (penicillin resistant Staphylococcus); test: Antibiotic activity (MIC), Gradient Plate in vitro method, V32; format: cell-based; conditions: read-out: Minimum Inhibitory Concentration
From the text: as §1, §2

Titration (pKa) = format: physicochemical; conditions: 66% dmf-34% h2o, titration (66% DMF-34% H2O)
Klebsiella pneumoniae = test: Antibiotic activity (MIC), Gradient Plate in vitro method, Klebsiella pneumoniae; format: cell-based; conditions: read-out: Minimum Inhibitory Concentration
From the text: as §3

Aerobacter Aerogenes = test: Antibiotic activity (MIC), Gradient Plate in vitro method, Aerobacter Aerogenes; format: cell-based; conditions: Klebsiella aerogenes, read-out: Minimum Inhibitory Concentration
From the text: as §3

Pseudomonas Aeruginosa = test: Antibiotic activity (MIC), Gradient Plate in vitro method, Pseudomonas Aeruginosa; format: cell-based; conditions: read-out: Minimum Inhibitory Concentration
From the text: as §3

[5] = Gradient Plate in vitro, V84, penicillin resistant Staphylococcus
[6] = Gradient Plate in vitro, V32, penicillin resistant Staphylococcus
[7] = first pKa, read-out: pKa (first value)
[8] = second pKa, read-out: pKa (second value)

With `O=C(O)C1=C(Cl)CSC2C(NC(=O)[C@H](NC(=O)c3cccc(O)c3O)c3ccccc3)C(=O)N12` (stereo partly drawn) [Example 18, 7-[D-[2-Phenyl-2-[(2,3-dihydroxybenzoyl)amino]acetyl]-amino]-3-chloro-3-cephem-4-carboxylic acid] the MIC (Serratia marcescens) was over 200 µg/mL, the MIC [1] was 24 µg/mL (≈ 47.6 µM) and the MIC (Shigella sp.) was 18 µg/mL (≈ 35.7 µM). It also gave an MIC (Salmonella heidelberg) of 1 µg/mL (≈ 1.98 µM), an MIC [2, 5] of 14.2 µg/mL (≈ 28.2 µM) and an MIC [3] of over 200 µg/mL. For the same molecule, the MIC (Escherichia coli) was 82 µg/mL (≈ 163 µM), the MIC [4, 6] was 21.5 µg/mL (≈ 42.7 µM) and the pKa (Titration (pKa); [7]) was 4.55. It also gave a pKa (Titration (pKa); [8]) of 3.84, an MIC (Klebsiella pneumoniae) of 7 µg/mL (≈ 13.9 µM) and an MIC (Aerobacter Aerogenes) of 50 µg/mL (≈ 99.2 µM). The MIC (Pseudomonas Aeruginosa) was over 200 µg/mL.

`Cc1nnc(SCC2=C(C(=O)O)N3C(=O)C(NC(=O)[C@H](NC(=O)c4c(O)cccc4O)c4ccc(O)cc4)C3SC2)s1` (stereo partly drawn) [Example 5, 7-[D-[2-(4-Hydroxyphenyl)-2-[(2,6-dihydroxybenzoyl)-amino]acetyl]amino]-3-[[(5-methyl-1,3,4-thiadiazol-2-yl)thio]methyl]-3-cephem-4-carboxylic acid] showed an MIC (Serratia marcescens) of over 200 µg/mL, an MIC [1] of 3.7 µg/mL (≈ 5.88 µM) and an MIC (Shigella sp.) of 48 µg/mL (≈ 76.2 µM). It also gave an MIC (Salmonella heidelberg) of 82 µg/mL (≈ 130 µM), an MIC [2, 5] of 1.3 µg/mL (≈ 2.06 µM) and an MIC [3] of 60 µg/mL (≈ 95.3 µM). The MIC (Escherichia coli) was 96 µg/mL (≈ 152 µM), the MIC [4, 6] was 4.6 µg/mL (≈ 7.31 µM) and the pKa (Titration (pKa); [7]) was 5.2. For the same molecule, the pKa (Titration (pKa); [8]) was 9.13, the MIC (Klebsiella pneumoniae) was 29.5 µg/mL (≈ 46.8 µM) and the MIC (Aerobacter Aerogenes) was 110 µg/mL (≈ 175 µM). The MIC (Pseudomonas Aeruginosa) was 27.5 µg/mL (≈ 43.7 µM).

`Cc1nnc(SCC2=C(C(=O)O)N3C(=O)C(NC(=O)[C@H](NC(=O)c4cc(O)c(O)c(O)c4O)c4ccc(O)cc4)C3SC2)s1` (stereo partly drawn) [Example 14, 7-[D-[2-(4-Hydroxyphenyl)-2-[(2,3,4,5-tetrahydroxybenzoyl)amino]acetyl]amino]-3-[[(1-methyl-1,3,4-thiadiazol-2-yl)thio]methyl]-3-cephem-4-carboxylic acid] showed an MIC (Serratia marcescens) of over 200 µg/mL, an MIC [1] of 7.2 µg/mL (≈ 10.9 µM) and an MIC (Shigella sp.) of 5.7 µg/mL (≈ 8.61 µM). It also gave an MIC (Salmonella heidelberg) of 3 µg/mL (≈ 4.53 µM), an MIC [2, 5] of 6.2 µg/mL (≈ 9.37 µM) and an MIC [3] of 134 µg/mL (≈ 203 µM). It also gave an MIC (Escherichia coli) of 10.1 µg/mL (≈ 15.3 µM), an MIC [4, 6] of 7.1 µg/mL (≈ 10.7 µM) and a pKa (Titration (pKa); [7]) of 4.98. The pKa (Titration (pKa); [8]) was 7.63, the pKa (Titration (pKa); third pKa, read-out: pKa (third value)) was 9.69 and the MIC (Klebsiella pneumoniae) was 5 µg/mL (≈ 7.56 µM). It also gave an MIC (Aerobacter Aerogenes) of 9.1 µg/mL (≈ 13.8 µM) and an MIC (Pseudomonas Aeruginosa) of 92 µg/mL (≈ 139 µM).

With `Cc1nnc(SCC2=C(C(=O)O)N3C(=O)C(NC(=O)[C@H](NC(=O)c4c(O)cc(O)cc4O)c4ccc(O)cc4)C3SC2)s1` (stereo partly drawn) [Example 8, 7-[D-[2-(4-Hydroxyphenyl)-2-[(2,4,6-trihydroxybenzoyl)-amino]acetyl]amino]-3-[[(5-methyl-1,3,4-thiadiazol-2-yl)thio]methyl]-3-cephem-4-carboxylic acid] the MIC (Serratia marcescens) was over 200 µg/mL, the MIC [1] was 10.5 µg/mL (≈ 16.3 µM) and the MIC (Shigella sp.) was 100 µg/mL (≈ 155 µM). It also gave an MIC (Salmonella heidelberg) of 110 µg/mL (≈ 170 µM), an MIC ([2]; Staphylococcus) of 10 µg/mL (≈ 15.5 µM) and an MIC [3] of 120 µg/mL (≈ 186 µM). The MIC (Escherichia coli) was 120 µg/mL (≈ 186 µM), the MIC ([4]; Staphylococcus) was 10 µg/mL (≈ 15.5 µM) and the MIC (Klebsiella pneumoniae) was 110 µg/mL (≈ 170 µM). The MIC (Aerobacter Aerogenes) was 140 µg/mL (≈ 217 µM) and the MIC (Pseudomonas Aeruginosa) was 100 µg/mL (≈ 155 µM).

Work on `Cc1nnc(SCC2=C(C(=O)O)N3C(=O)C(NC(=O)[C@H](NC(=O)c4ccc(O)c(O)c4O)c4ccc(O)cc4)C3SC2)s1` (stereo partly drawn) [Example 7, 7-[D-[2-(4-Hydroxyphenyl)-2-[(2,3,4-trihydroxybenzoyl)-amino]-acetyl]amino]-3-[[(5-methyl-1,3,4-thiadiazol-2-yl)thio]methyl]-3-cephem-4-carboxylic acid] yielded an MIC (Serratia marcescens) of over 200 µg/mL, an MIC [1] of 60 µg/mL (≈ 92.9 µM) and an MIC (Shigella sp.) of 50 µg/mL (≈ 77.4 µM). It also gave an MIC (Salmonella heidelberg) of 16 µg/mL (≈ 24.8 µM), an MIC [2, 5] of 25 µg/mL (≈ 38.7 µM) and an MIC [3] of over 200 µg/mL. It also gave an MIC (Escherichia coli) of 100 µg/mL (≈ 155 µM), an MIC [4, 6] of 60 µg/mL (≈ 92.9 µM) and an MIC (Klebsiella pneumoniae) of 52.5 µg/mL (≈ 81.3 µM). It also gave an MIC (Aerobacter Aerogenes) of 57.5 µg/mL (≈ 89.1 µM) and an MIC (Pseudomonas Aeruginosa) of 25 µg/mL (≈ 38.7 µM).

For `Cc1nnc(SCC2=C(C(=O)O)N3C(=O)C(NC(=O)[C@H](NC(=O)c4ccc(N)c(N)c4)c4ccc(O)cc4)C3SC2)s1` (stereo partly drawn) [Example 13, 7-[D-[2-(4-Hydroxyphenyl)-2-[(3,4-diaminobenzoyl)amino]-acetyl]amino]-3-[[(5-methyl-1,3,4-thiadiazol-2-yl)-thio]methyl]-3-cephem-4-carboxylic acid], the MIC (Serratia marcescens) was 116 µg/mL (≈ 185 µM), the MIC [1] was 4.6 µg/mL (≈ 7.33 µM) and the MIC (Shigella sp.) was 13.8 µg/mL (≈ 22 µM). It also gave an MIC (Salmonella heidelberg) of 14.6 µg/mL (≈ 23.3 µM), an MIC ([2]; Staphylococcus) of 5 µg/mL (≈ 7.97 µM) and an MIC [3] of 126 µg/mL (≈ 201 µM). For the same molecule, the MIC (Escherichia coli) was 19 µg/mL (≈ 30.3 µM), the MIC [4, 6] was 5.2 µg/mL (≈ 8.28 µM) and the MIC (Klebsiella pneumoniae) was 14.8 µg/mL (≈ 23.6 µM). For the same molecule, the MIC (Aerobacter Aerogenes) was 33.2 µg/mL (≈ 52.9 µM) and the MIC (Pseudomonas Aeruginosa) was 31.5 µg/mL (≈ 50.2 µM).
